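Test compounds were applied to cells in 96-well plates for 48 hours at 5 doses. Here, GI50 denotes the concentration required for 50% inhibition of growth. At the TGI there is no net growth.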
Assays:
Test in all cases: inhibition of tumour cell growth, NCI panel, 48 h
[1] = test system: T-47D breast
[2] = test system: SF-539 CNS
[3] = test system: SR leukemia
[4] = test system: SNB-75 CNS
[5] = test system: SK-OV-3 ovarian
[6] = test system: SK-MEL-5 melanoma
[7] = test system: HCC-2998 colon
[8] = test system: ACHN renal
[9] = test system: IGROV1 ovarian
[10] = test system: HS 578T breast
[11] = test system: MDA-MB-435
[12] = test system: CCRF-CEM leukemia
[13] = test system: OVCAR-8 ovarian
[14] = test system: OVCAR-4 ovarian
[15] = test system: BT-549 breast
[16] = test system: NCI/ADR-RES ovarian
[17] = test system: RPMI-8226 leukemia
[18] = test system: HT29 colon
[19] = test system: DU-145 prostate
[20] = test system: SF-295 CNS
[21] = test system: NCI-H522 lung
[22] = test system: A498 renal
[23] = test system: MDA-MB-231 breast
[24] = test system: SK-MEL-2 melanoma
[25] = test system: CAKI-1 renal
[26] = test system: HOP-92 NSCLC
[27] = test system: OVCAR-5 ovarian
[28] = test system: NCI-H23 lung
[29] = test system: HCT-116 colon
[30] = test system: TK-10 renal
[31] = test system: NCI-H460 lung
[32] = test system: EKVX NSCLC
[33] = test system: SW-620 colon
[34] = test system: UACC-62 melanoma
[35] = test system: OVCAR-3 ovarian
[36] = test system: COLO 205 colon
[37] = test system: MALME-3M melanoma
[38] = test system: SK-MEL-28 melanoma
[39] = test system: PC-3 prostate
[40] = test system: SNB-19 CNS
[41] = test system: SN12C renal
[42] = test system: HCT-15 colon
[43] = test system: LOX IMVI melanoma
[44] = test system: MCF7 breast
[45] = test system: MOLT-4 leukemia
[46] = test system: HL-60(TB) leukemia
[47] = test system: A549 NSCLC
[48] = test system: UO-31 renal
[49] = test system: 786-0 renal
[50] = test system: K-562 leukemia
[51] = test system: UACC-257 melanoma
[52] = test system: NCI-H226 lung
[53] = test system: SF-268 CNS
[54] = test system: KM12 colon
[55] = test system: HOP-62 NSCLC
[56] = test system: M14 melanoma

`CN(C)CCCOc1ccc(C(=C(c2ccccc2)C2CCCC2)c2ccc(OCCCN(C)C)cc2)cc1` gave a GI50 [1] of 9.86 µM, a TGI [1] of 25.3 µM and a GI50 [2] of 1.69 µM. For the same compound, the TGI [2] was 3.06 µM, the GI50 [3] was 2 µM and the TGI [3] was 7.36 µM. It also gave a GI50 [4] of 9.08 µM, a TGI [4] of 22.1 µM and a GI50 [5] of 17.1 µM. For the same compound, the TGI [5] was 33 µM, the GI50 [6] was 12.1 µM and the TGI [6] was 24.5 µM. The GI50 [7] was 1.93 µM, the TGI [7] was 3.91 µM and the GI50 [8] was 2.12 µM. The TGI [8] was 4.7 µM, the GI50 [9] was 2.07 µM and the TGI [9] was 4.58 µM. It also gave a GI50 [10] of 2.13 µM, a TGI [10] of 5.53 µM and a GI50 [11] of 1.7 µM. For the same compound, the TGI [11] was 3.09 µM, the GI50 [12] was 2.58 µM and the TGI [12] was 6.85 µM. The GI50 [13] was 1.98 µM, the TGI [13] was 4.87 µM and the GI50 [14] was 1.91 µM. For the same compound, the TGI [14] was 4.34 µM, the GI50 [15] was 15.3 µM and the TGI [15] was 30.8 µM. The GI50 [16] was 2.85 µM, the GI50 [17] was 2.17 µM and the TGI [17] was 5.75 µM. It also gave a GI50 [18] of 1.97 µM, a TGI [18] of 3.97 µM and a GI50 [19] of 4.43 µM. The TGI [19] was 15.2 µM, the GI50 [20] was 1.85 µM and the TGI [20] was 3.98 µM. For the same compound, the GI50 [21] was 1.55 µM, the TGI [21] was 3.12 µM and the GI50 [22] was 13.8 µM. For the same compound, the TGI [22] was 28.5 µM, the GI50 [23] was 1.74 µM and the TGI [23] was 3.22 µM. The GI50 [24] was 11.6 µM, the TGI [24] was 24.1 µM and the GI50 [25] was 3.62 µM. For the same compound, the TGI [25] was 13.6 µM, the GI50 [26] was 2.72 µM and the TGI [26] was 15.2 µM. The GI50 [27] was 1.85 µM, the TGI [27] was 4.68 µM and the GI50 [28] was 4.95 µM. The TGI [28] was 17.5 µM, the GI50 [29] was 1.89 µM and the TGI [29] was 4.13 µM. The GI50 [30] was 14.6 µM, the TGI [30] was 28.9 µM and the GI50 [31] was 1.69 µM. For the same compound, the TGI [31] was 3.16 µM, the GI50 [32] was 7.43 µM and the TGI [32] was 21.3 µM. The GI50 [33] was 1.58 µM, the TGI [33] was 3.02 µM and the GI50 [34] was 1.6 µM. It also gave a TGI [34] of 2.98 µM, a GI50 [35] of 2.16 µM and a TGI [35] of 5.19 µM. For the same compound, the GI50 [36] was 1.71 µM, the TGI [36] was 3.62 µM and the GI50 [37] was 1.64 µM. For the same compound, the TGI [37] was 3.01 µM, the GI50 [38] was 1.62 µM and the TGI [38] was 3.01 µM. For the same compound, the GI50 [39] was 3.26 µM, the TGI [39] was 14.2 µM and the GI50 [40] was 2.15 µM. It also gave a TGI [40] of 5.67 µM, a GI50 [41] of 1.64 µM and a TGI [41] of 3.04 µM. The GI50 [42] was 1.67 µM, the TGI [42] was 3.22 µM and the GI50 [43] was 1.63 µM. The TGI [43] was 2.99 µM, the GI50 [44] was 1.33 µM and the TGI [44] was 2.69 µM. For the same compound, the GI50 [45] was 2.56 µM, the TGI [45] was 6.34 µM and the GI50 [46] was 2.03 µM. The TGI [46] was 4.44 µM, the GI50 [47] was 3.47 µM and the TGI [47] was 16.6 µM. The GI50 [48] was 1.54 µM, the TGI [48] was 3.08 µM and the GI50 [49] was 2.62 µM. It also gave a TGI [49] of 8.3 µM, a GI50 [50] of 2.02 µM and a TGI [50] of 5.26 µM. The GI50 [51] was 10.7 µM, the TGI [51] was 24.1 µM and the GI50 [52] was 2.81 µM. For the same compound, the TGI [52] was 11.4 µM, the GI50 [53] was 2.51 µM and the TGI [53] was 7.16 µM. It also gave a GI50 [54] of 3.56 µM, a TGI [54] of 13.1 µM and a GI50 [55] of 14.6 µM. It also gave a TGI [55] of 32.6 µM, a GI50 [56] of 1.85 µM and a TGI [56] of 3.74 µM.

Reference: PubChem BioAssay (NCI)
